In patent publication US11407719B2, “Anti-inflammatory agents” (Resverlogix Corp., priority 2009, dated 2022):

test system: hIL-6 mRNA; test: Quantification of hIL-6 mRNA; assay type: cell-based, human; set-up: key: Active: an active compound is one that causes a ≥20% inhibition in IL-6 mRNA at a concentration less than or equal to 10 μM; details: IL-6 mRNA by real-time PCR; differentiated U937 cells, 1 h pretreatment, lipopolysaccharide stimulation 3 h; concentration ≤10 μM
Description: In this example, […] in tissue culture cells was quantitated to measure the transcriptional inhibition of hIL-6 when treated with a compound of the invention.
A human leukemic monocyte lymphoma cell line (U937) was plated (3.2×10^5 cells per well) in a 96-well plate in 100 μL RPMI-1640, and differentiated for 3 days prior to the addition of the compound of interest. The cells were pretreated for 1 h with the test compound prior to stimulation with lipolysaccharide from Escherichia coli. The cells were incubated at 37° C. for 3 h before the cells were harvested. At time of harvest, the spent media was removed from the cells and the cells were rinsed in 200 μL PBS. Cell lysis solution (70 μL) was added the cells in each well and incubated for 5-10 min at room temperature, to allow for complete cell lysis and detachment. mRNA was then prepared using the “mRNA Catcher PLUS plate” (Invitrogen), according to the protocol supplied. After the last wash, as much wash buffer as possible was aspirated without allowing the wells to dry. Elution buffer (E3, 70 μL) was then added to each well. mRNA was then eluted by incubating the mRNA Catcher PLUS plate with Elution Buffer for 5 min at 68° C. and then immediately placing the plate on ice.
The eluted mRNA isolated was then used in a one-step quantitative real-time PCR reaction, using components of the Ultra Sense Kit together with Applied Biosystems primer-probe mixes. Real-time PCR data was analyzed, normalizing the Ct values for hIL-6 to an internal control, prior to determining the fold induction of each unknown sample, relative to the control.

| SMILES | Inhibition of IL-6 expression |
| --- | --- |
| COc1cc(OC)c2c(=O)[nH]c(-c3ccc4[nH]c(CCO)cc4c3)nc2c1 [2-(2-(2-Hydroxyethyl)-1H-indol-5-yl)-5,7-dimethoxyquinazolin-4(3H)-one] | Active |
| COc1cc(OC)c2c(=O)[nH]c(-c3cc(C)c(OCCN4C(=O)c5ccccc5C4=O)c(C)c3)cc2c1 [2-(2-(4-(6,8-Dimethoxy-1-oxo-1,2-dihydroisoquinolin-3-yl)-2,6-dimethylphenoxy)ethyl)isoindoline-1,3-dione] | Active |
| COc1cc(OC)c2c(=O)[nH]c(-c3ccc4[nH]c(CO)cc4c3)nc2c1 [2-(2-(Hydroxymethyl)-1H-indol-5-yl)-5,7-dimethoxyquinazolin-4(3H)-one] | Active |
| Cc1cc(-c2nc3nc(OC(C)C)cc(OC(C)C)c3c(=O)[nH]2)cc(C)c1OCCN1CCCC1 [2-(3,5-Dimethyl-4-(2-(pyrrolidin-1-yl)ethoxy)phenyl)-5,7-diisopropoxypyrido[2,3-d]pyrimidin-4(3H)-one] | Active |
| COc1cc(OC)c2c(=O)[nH]c(-c3cc(C)c(OCCCN4CCCC4)c(C)c3)nc2c1 [2-(3,5-Dimethyl-4-(3-(pyrrolidin-1-yl)propoxy)phenyl)-5,7-dimethoxyquinazolin-4(3H)-one] | Active |
| COc1cc(OC)c2c(=O)[nH]c(-c3ccc4[nH]nc(CO)c4c3)nc2c1 [2-(3-(Hydroxymethyl)-1H-indazol-5-yl)-5,7-dimethoxyquinazolin-4(3H)-one] | Active |
| COc1cc(OC)c2c(=O)[nH]c(-c3ccc(OC4CCN(C(C)=O)CC4)cc3)nc2c1 [2-(4-(1-Acetylpiperidin-4-yloxy)phenyl)-5,7-dimethoxyquinazolin-4(3H)-one] | Active |
| COc1cc(OC)c2c(=O)[nH]c(-c3ccc(C4CCN(C(C)=O)CC4)cc3)nc2c1 [2-(4-(1-acetylpiperidin-4-yl)phenyl)-5,7-dimethoxyquinazolin-4(3H)-one] | Active |
| COc1cc(OC)c2c(=O)[nH]c(-c3ccc(N4CCN(Cc5ccc(F)cc5)CC4)cc3)nc2c1 [2-(4-(4-(4-Fluorobenzyl)piperazin-1-yl)phenyl)-5,7-dimethoxyquinazolin-4(3H)-one] | Active |
| COc1cc(OC)c2c(=O)[nH]c(-c3ccc(N4CCC(NC(C)C)CC4)cc3)nc2c1 [2-(4-(4-(Isopropylamino)piperidin-1-yl)phenyl)-5,7-dimethoxyquinazolin-4(3H)-one] | Active |
| COc1cc(OC)c2c(=O)[nH]c(-c3ccc(N4CCCN(C(C)=O)CC4)cc3)nc2c1 [2-(4-(4-Acetyl-1,4-diazepan-1-yl)phenyl)-5,7-dimethoxyquinazolin-4(3H)-one] | Active |
| COc1cc(OC)c2c(=O)[nH]c(-c3ccc(N4CCN(Cc5ccccc5)CC4)cc3)nc2c1 [2-(4-(4-Benzylpiperazin-1-yl)phenyl)-5,7-dimethoxyquinazolin-4(3H)-one] | Active |
| COc1cc(OC)c2c(=O)[nH]c(-c3ccc(N4CCN(C(=O)c5ccncc5)CC4)cc3)nc2c1 [2-(4-(4-Isonicotinoylpiperazin-1-yl)phenyl)-5,7-dimethoxyquinazolin-4(3H)-one] | Active |
| COc1cc(OC)c2c(=O)[nH]c(-c3ccc(N4C[C@@H](C)N(C(C)=O)[C@@H](C)C4)cc3)nc2n1 [2-(4-((3R,5S)-4-Acetyl-3,5-dimethylpiperazin-1-yl)phenyl)-5,7-dimethoxypyrido[2,3-d]pyrimidin-4(3H)-one] | Active |
| COc1cc(OC)c2c(=O)[nH]c(-c3ccc(N4C[C@@H](C)N(C(C)C)[C@@H](C)C4)cc3)nc2c1 [2-(4-((3R,5S)-4-Isopropyl-3,5-dimethylpiperazin-1-yl)phenyl)-5,7-dimethoxyquinazolin-4(3H)-one] | Active |
| COc1cc(OC)c2c(=O)[nH]c(-c3ccc(CN4CCC(NC(C)C)CC4)cc3)nc2c1 [2-(4-((4-(Isopropylamino)piperidin-1-yl)methyl)phenyl)-5,7-dimethoxyquinazolin-4(3H)-one] | Active |
| COc1cc(OC)c2c(=O)[nH]c(-c3ccc(N(CCO)CCO)cc3)nc2n1 [2-(4-(bis(2-hydroxyethyl)amino)phenyl)-5,7-dimethoxypyrido[2,3-d]pyrimidin-4(3H)-one] | Active |
| COc1cc(OC)c2c(=O)[nH]c(-c3ccc(N4CCC(NCc5ccccc5)CC4)nc3)nc2c1 [2-(6-(4-(Benzylamino)piperidin-1-yl)pyridin-3-yl)-5,7-dimethoxyquinazolin-4(3H)-one] | Active |
| COc1cc(OC)c2c(=O)[nH]c(-c3ccc(CN4CCN(C(C)C)CC4)cc3)nc2c1 [2-(44(4-Isopropylpiperazin-1-yl)methyl)phenyl)-5,7-dimethoxyquinazolin-4(3H)-one] | Active |
| COc1cc(OC)c2c(=O)[nH]c(-c3ccc(N4CCC(NC(=O)N(C)C)CC4)cc3)nc2c1 [3-(1-(4-(5,7-Dimethoxy-4-oxo-3,4-dihydroquinazolin-2-yl)phenyl)piperidin-4-yl)-1,1-dimethylurea] | Active |
| COc1cc(OC)c2c(=O)[nH]c(-c3cc(C)c(OCCN4CCN(C)CC4)c(C)c3)cc2c1 [3-(3,5-dimethyl-4-(2-(4-methylpiperazin-1-yl)ethoxy)phenyl)-6,8-dimethoxyisoquinolin-1(2H)-one] | Active |
| COc1cc(OC)c2c(=O)[nH]c(-c3cc(C)c(OCCN4CCOCC4)c(C)c3)cc2c1 [3-(3,5-dimethyl-4-(2-morpholinoethoxy)phenyl)-6,8-dimethoxyisoquinolin-1(2H)-one] | Active |
| COc1cc(OC)c2c(=O)[nH]c(-c3ccc(OC4CCN(C(=O)N(C)C)CC4)cc3)nc2c1 [4-(4-(5,7-Dimethoxy-4-oxo-3,4-dihydroquinazolin-2-yl)phenoxy)-N,N-dimethylpiperidine-1-carboxamide] | Active |
| COc1cc(OC)c2c(=O)[nH]c(-c3ccc(N4CCN(C=O)CC4)cc3)nc2c1 [4-(4-(5,7-Dimethoxy-4-oxo-3,4-dihydroquinazolin-2-yl)phenyl)piperazine-1-carbaldehyde] | Active |
| CNC1CCN(c2ccc(-c3nc4cc(OC)cc(OC)c4c(=O)[nH]3)cc2)C1 (centres unmarked) [5,7-Dimethoxy-2-(4-(3-(methylamino)pyrrolidin-1-yl)phenyl)quinazolin-4(3H)-one] | Active |
| COc1cc(OC)c2c(=O)[nH]c(-c3ccc(N4CCNC(C)C4)cc3)nc2c1 (centres unmarked) [5,7-Dimethoxy-2-(4-(3-methylpiperazin-1-yl)phenyl)quinazolin-4(3H)-one] | Active |
| COc1cc(OC)c2c(=O)[nH]c(-c3ccc(N4CCN(C(=O)c5cccs5)CC4)cc3)nc2c1 [5,7-Dimethoxy-2-(4-(4-(thiophene-2-carbonyl)piperazin-1-yl)phenyl)quinazolin-4(3H)-one] | Active |
| COc1cc(OC)c2c(=O)[nH]c(-c3ccc(N4CCN(C(=O)c5cccnc5)CC4)cc3)nc2c1 [5,7-Dimethoxy-2-(4-(4-nicotinoylpiperazin-1-yl)phenyl)quinazolin-4(3H)-one] | Active |
| COc1cc(OC)c2c(=O)[nH]c(-c3ccc(N4CCC(=O)CC4)cc3)nc2n1 [5,7-Dimethoxy-2-(4-(4-oxopiperidin-1-yl)phenyl)pyrido[2,3-d]pyrimidin-4(3H)-one] | Active |
